Measured values reported in patent US20080145340A1, “Neuroactive agents and methods of their use” (The University of Western Australia, priority 2005, published 2008).

Tests used:
Type in all cases: cell-based, rat
[1] = test system: cortical neuronal cultures; test: Cumene hydroperoxide oxidative stress, neuronal survival by MTS assay (Example 4); conditions: for neuronal survival following cumene exposure: cumene 25 μM, survival 24 h later, untreated 15%, FIG. 8A
Description: (§1) Neurons were resuspended in Neurobasal (NB; Invitrogen) containing 2% B27 supplement (B27; Invitrogen).
(§2) Neuronal cultures were maintained in a CO2 incubator (5% CO2, 95% air balance, 98% humidity) at 37° C.

[2] = test system: cortical neuronal cultures; test: In vitro ischemia, neuronal survival by MTS assay (Example 4); conditions: rhCyPA 100 nM; survival 24 h later; untreated 24%; FIG. 8B
Description: as §1, §2

ERK1 (p44) = test: rhCyPA mediated ERK1/2 phosphorylation time course, Western blot densitometry; conditions: rhCyPA 100 nM
Description: (§3) FIG. 7—time course of recombinant human (rh) CyPA mediated ERK1/2 phosphorylation in cortical neuronal cultures. Neuronal cultures were treated with rhCyPA (100 nM) for the indicated times. The resulting protein lysates were probed with antibody to detect phosphorylated ERK1/2 and then re-probed for total ERK1/2.
(§4) For protein extraction, brain tissue and cultured cells were lysed in buffer (50 mM Tris-HCl pH 7.5, 100 mM NaCl, 20 mM EDTA, 0.1% SDS, 0.2% deoxycholic acid, containing Complete™ protein inhibitor, Roche), vortexed briefly and clarified by centrifugation at 4° C. Protein concentrations were determined by the Bradford assay (Biorad, USA). Equivalent amounts of protein (5-10 μg per lane) were loaded and separated on 4-12% gradient SDS poly-acrylamide Bis-Tris mini-gels, (NuPAGE; Invitrogen) and transferred to a PVDF membrane. Membranes were blocked in PBS/T containing ovalbumin (1 mg/mL) for 1 min at room temperature before washing in PBS/T and PBS.
(§5) Membranes were incubated at 4° C. overnight in blocking solution containing primary antibody, washed and incubated in blocking solution containing HRP conjugated secondary antibody for 1 h at room temperature. Protein bands were detected using ECL Plus (Amersham, UK) and visualised by exposure to x-ray film (Hyperfilm; Amersham), scanned and quantified using NIH image. Primary antibodies used were; rabbit polyclonal anti-CyPA (1:25000; Biomol), mouse monoclonal anti-β-tubulin (0.5 μg/mL, Pharmingen, USA), mouse monoclonal anti-phospho ERK1/2 (1:5000; Santa Cruz), rabbit polyclonal anti-ERK1/2 (1:10000; Santa Cruz) and goat polyclonal anti-CD147 (1:10000; Santa Cruz). Secondary antibodies were donkey anti-rabbit IgG (1:25,000-1:50,000; Amersham), sheep anti-mouse IgG (1:10,000-1:20,000; Amersham) and rabbit anti-goat IgG (Zymed).
(§6) To determine if exogenously applied CyPA can mediate ERK1/2 activation we exposed neuronal cultures to rhCyPA protein (100 nM) and the results are summarised in FIG. 7. Addition of rhCyPA induced a rapid phosphorylation of ERK1 and ERK2, which peaked at 5 min, before returning to basal levels.

ERK2 (p42) = test: as above; conditions: rhCyPA 100 nM
Description: as §3, §4, §5, §6

[3] = test system: cortical neuronal cultures; test: Differential protein expression in preconditioned neuronal cultures, 2-D gel electrophoresis (Example 1); conditions: CHX 0.3 μg/ml for 24 h; MK801 1 μM for 30 min, then 12 h; versus untreated DIV 12 cultures
Description: Cortical tissue from E18-E19 rats was dissociated in Hibernate E medium (Invitrogen, Carlsbad, Calif., USA) supplemented with 1.3 mM L-cysteine, 10 units/ml papain (ICN, Costa Mesa, Calif., USA) and 50 units/ml DNase (Sigma, St. Louis, Mo., USA) and washed in cold Dulbecco's Modified Eagle Medium (Invitrogen)/10% horse serum.
Neurons were resuspended in Neurobasal (NB; Invitrogen)/2% B27 supplement (Invitrogen), the cell concentration was adjusted to 1.8 million neurons/2 ml and 2 ml inoculated into each well of a 6 well plate pretreated as described below.
Neuronal cultures were maintained in a CO2 incubator (5% CO2, 95% air balance, 98% humidity) at 37° C. […]
Total protein was isolated from control and preconditioned neuronal cultures at the times outlined above by removing all the media from wells and washing once with phosphate-buffered saline, before the addition of lysis buffer (7M urea, 2M thiourea, 40 mM tris-HCl, 1% sulfobetaine 3-10, 2% CHAPS, 65 mM DTT, 1% Bio-Lyte carrier ampholytes pH 3-10; Bio-Rad, Hercules, Calif., USA). […] Protein content was determined by amino acid analysis using Waters AccQ Tag chemistry (Millipore Corporation, Milford, Mass., USA) as previously described (Cohen et al., 1983, in: Angeletti, R. H. (Ed.), Techniques in Protein Chemistry IV, Academic Press, San Diego). […]

[4] = test system: primary cortical neuronal cultures; test: Cumene oxidative stress injury model (Example 3); conditions: protein added (0.1-100 nM) at the time of cumene exposure
Text: Adenovirus vectors were used to upregulate specific proteins in primary cortical neuronal cultures. cDNA for proteins of interest was obtained by RT-PCR and cloned into pGEM. Sequence verified cDNA clones were then used to construct recombinant adenoviruses expressing genes of interest under the control of the rous sarcoma virus (RSV) promoter and the woodchuck post-transcriptional regulatory element (WPRE). The recombinant viruses also express the reporter GFP under the control of the CMV promoter. Protein of interest expression in recombinant adenoviruses was confirmed in transfected HEK and/or neuronal cultures. Control viruses consisted of an adenovirus expressing RFP, no gene (empty vector) and the anti-apoptotic gene Bcl-xl. […]
Cumene induced oxidative stress was performed by removing media from neuronal culture wells and adding 100 μl DMEM/N2 medium containing different concentrations of cumene (20-25 μM). […] Neuronal viability was measured and analysed as described above.

[5] = test system: primary cortical neuronal cultures; test: In vitro ischaemia/stroke model, transient oxygen glucose deprivation (Example 3); conditions: protein added (0.1-100 nM) at the time of in vitro ischaemia

## rhCyPA: recombinant human cyclophilin A (rhCyPA, Biomol)
[1]; rhCyPA 10 nM
  neuronal survival following cumene exposure: 56%
[1]; rhCyPA 100 nM
  neuronal survival following cumene exposure: 70%
[2]
  neuronal survival following in vitro ischemia: 35%
ERK1 (p44); at 5 min, FIG. 7
  ERK1 (p44) activation increase: 2.6 fold
ERK1 (p44); then returning to basal levels
  time of peak phosphorylation of ERK1: 5 min
ERK2 (p42); at 5 min, FIG. 7
  ERK2 (p42) activation increase: 3.3 fold
ERK2 (p42); then returning to basal levels
  time of peak phosphorylation of ERK2: 5 min

## CC(C)c1ccccc1.OO [cumene, cumene hydroperoxide, reference compound]
[1]; 25 μM cumene, dose response experiment, data not shown
  cell survival after exposure to cumene: 15-30%

## C[C@]12N[C@H](Cc3ccccc31)c1ccccc12 [MK801]
[3]
  overall change of protein expression after preconditioning: protein down-regulation

## CyPA protein: CyPA protein suspended in PBS, added to neuronal cultures (0.1-100 nM)
[4]
  neuroprotection against cumene insult: neuroprotective
[5]
  neuroprotection against in vitro ischaemia: neuroprotective

## C[C@@H]1C[C@@H]([C@H](O)CC2CC(=O)NC(=O)C2)C(=O)[C@@H](C)C1 [CHX, cycloheximide]
[3]
  overall change of protein expression after preconditioning: protein down-regulation
